Experimental data from patent US8742110B2, “Spiroxazolidinone compounds” (Merck Sharp & Dohme Corp., priority 2010, dated 2014).
Where a name gives a salt, the structure may show the parent alone.

Target: SSTR5 (Homo sapiens (Human), UniProt P35346)
Assay: SSTR5 binding assay
Conditions: CHO-K1 membranes expressing cloned human SSTR5
Summary of the method: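 Competition binding on membranes from CHO-K1 cells stably expressing cloned human receptor, using radiolabeled somatostatin in 50 mM Tris-HCl pH 7.8 with EGTA, MgCl2 and protease inhibitors. Unlabeled compounds tested from 0.01 nM to 10,000 nM.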

SSTR5, sequence (P35346 whole entry): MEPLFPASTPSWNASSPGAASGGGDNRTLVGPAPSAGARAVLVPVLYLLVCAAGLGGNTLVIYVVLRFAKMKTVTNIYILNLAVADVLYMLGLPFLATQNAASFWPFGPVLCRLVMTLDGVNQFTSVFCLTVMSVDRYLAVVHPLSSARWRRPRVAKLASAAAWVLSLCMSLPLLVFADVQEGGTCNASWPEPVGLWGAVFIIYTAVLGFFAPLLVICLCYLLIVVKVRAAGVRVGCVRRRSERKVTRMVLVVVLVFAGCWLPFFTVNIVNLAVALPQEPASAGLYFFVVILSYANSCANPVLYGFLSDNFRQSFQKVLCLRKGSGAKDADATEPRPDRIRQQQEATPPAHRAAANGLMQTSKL

Row | SMILES | IC50 [nM]
1 | COc1ccc(-c2nn(-c3ccccc3)cc2CN2CCC3(CC2)CN(c2ccc(C(=O)O)cc2)C(=O)O3)cc1 [Example 1-9, 4-(8-{[3-(4-Methoxyphenyl)-1-phenyl-1H-pyrazol-4-yl]methyl}-2-oxo-1-oxa-3,8-diazaspiro[4.5]dec-3-yl)benzoic acid, TFA salt] | 2
2 | COc1ccc2c(CN3CCC4(CC3)CN(c3ccc(C(=O)O)cc3)C(=O)O4)n[nH]c2c1 [Example 6-2, 4-{8-[(6-Methoxy-1H-indazol-3-yl)methyl]-2-oxo-1-oxa-3,8-diazaspiro[4.5]dec-3-yl}benzoic acid, TFA salt] | 1740
3 | COc1ccc2c(CN3CCC4(CC3)CN(c3ccc(C(=O)O)cc3)C(=O)O4)nn(-c3ccccc3)c2c1 [Example 6-13, 4-{8-[(6-Methoxy-1-phenyl-1H-indazol-3-yl)methyl]-2-oxo-1-oxa-3,8-diazaspiro[4.5]dec-3-yl}benzoic acid, TFA salt] | 185
4 | CCOc1ccc(-c2ccc(F)c(F)c2)c(CN2CCCC3(CC2)CN(c2ccc(C(=O)O)cc2)C(=O)O3)c1 (centres unmarked) [Example 2-13, 4-{8-[(4-Ethoxy-3′,4′-difluorobiphenyl-2-yl)methyl]-2-oxo-1-oxa-3,8-diazaspiro[4.6]undec-3-yl}benzoic acid, TFA salt] | 26.1
5 | CCOc1cc(CN2CCC3(CC2)CN(c2cncc(O)c2)C(=O)O3)cc(OCC)c1-c1ccc(F)cc1 [Example 3-2, 8-[(2,6-Diethoxy-4′-fluorobiphenyl-4-yl)methyl]-3-(5-hydroxypyridin-3-yl)-1-oxa-3,8-diazaspiro[4.5]decan-2-one, TFA salt] | 1.46
6 | O=C(O)c1ccc(N2CC3(CCN(Cc4c(Cc5cc(F)c(F)cc5F)nn(-c5ccccc5)c4Cl)CC3)OC2=O)cc1 [Example 1-47, 4-(8-{[5-Chloro-1-phenyl-3-(2,4,5-trifluorobenzyl)-1H-pyrazol-4-yl]methyl}-2-oxo-1-oxa-3,8-diazaspiro[4.5]dec-3-yl)benzoic acid, TFA salt] | 79
7 | CCOc1cc(CN2CCC3(CC2)CN(c2ccc(C(=O)O)cc2)C(=O)O3)c(-c2ccc(C(F)(F)F)nc2)cc1C [Example 4-20, 4-(8-{5-Ethoxy-4-methyl-2-[6-(trifluoromethyl)pyridin-3-yl]benzyl}-2-oxo-1-oxa-3,8-diazaspiro[4.5]dec-3-yl)benzoic acid, TFA salt] | 0.632
8 | CCOc1cc(C)nc2c(OCC)cc(CN3CCC4(CC3)CN(c3ccc(C(=O)O)cc3)C(=O)O4)cc12 [Example 5-4, 4-{8-[(4,8-Diethoxy-2-methylquinolin-6-yl)methyl]-2-oxo-1-oxa-3,8-diazaspiro[4.5]dec-3-yl}benzoic acid, TFA salt] | 65.2
9 | O=C(O)c1ccc(N2CC3(CCN(Cc4cc(C(F)(F)F)ccc4-c4ccc(F)c(F)c4F)CC3)OC2=O)cc1 [Example 4-9, 4-(2-Oxo-8-{[2′,3′,4′-trifluoro-4-(trifluoromethyl)biphenyl-2-yl]methyl}-1-oxa-3,8-diazaspiro[4.5]dec-3-yl)benzoic acid, TFA salt] | 0.439
10 | CC(C)(C)n1cc(CN2CCC3(CC2)CN(c2ccc(C(=O)O)c(F)c2)C(=O)O3)c(-c2ccc(F)c(F)c2F)n1 [Example 1-42, 4-(8-{[1-tert-Butyl-3-(2,3,4-trifluorophenyl)-1H-pyrazol-4-yl]methyl}-2-oxo-1-oxa-3,8-diazaspiro[4.5]dec-3-yl)-2-fluorobenzoic acid, TFA salt] | 4.68
11 | CC(C)(C)n1cc(CN2CCC3(C2)CN(c2ccc(C(=O)O)cc2)C(=O)O3)c(-c2ccc(F)c(F)c2F)n1 (centres unmarked) [Example 2-17, 4-(7-{[1-tert-Butyl-3-(2,3,4-trifluorophenyl)-1H-pyrazol-4-yl]methyl}-2-oxo-1-oxa-3,7-diazaspiro[4.4]non-3-yl)benzoic acid, TFA salt] | 32.7
12 | COc1ccc2c(CN3CCC4(CC3)CN(c3ccc(C(=O)O)cc3)C(=O)O4)cn(C(C)C)c2c1 [Example 6-16, 4-(8-{[6-Methoxy-1-(propan-2-yl)-1H-indol-3-yl]methyl}-2-oxo-1-oxa-3,8-diazaspiro[4.5]dec-3-yl)benzoic acid, TFA salt] | 0.851
13 | Cc1cccn2c(-c3cc(F)c(F)cc3F)c(CN3CCC4(CC3)CN(c3ccc(C(=O)O)cc3)C(=O)O4)nc12 [Example 6-39, 4-(8-{[8-Methyl-3-(2,4,5-trifluorophenyl)imidazo[1,2-a]pyridin-2-yl]methyl}-2-oxo-1-oxa-3,8-diazaspiro[4.5]dec-3-yl)benzoic acid, TFA salt] | 442
14 | O=C(O)c1ccc(N2CC3(CCN(Cc4cc5c(cc4-c4cc(F)c(F)cc4F)CCC5)CC3)OC2=O)cc1 [Example 4-19, 4-(2-Oxo-8-{[6-(2,4,5-trifluorophenyl)-2,3-dihydro-1H-inden-5-yl]methyl}-1-oxa-3,8-diazaspiro[4.5]dec-3-yl)benzoic acid, TFA salt] | 0.243
15 | CC(C)(C)n1cc(CN2CCC3(CC2)CN(c2ccc(C(=O)O)cc2)C(=O)O3)c(-c2ccc(F)c(F)c2F)n1 [Example 1-1, 4-(8-{[1-tert-Butyl-3-(2,3,4-trifluorophenyl)-1H-pyrazol-4-yl]methyl}-2-oxo-1-oxa-3,8-diazaspiro[4.5]dec-3-yl)benzoic acid, TFA salt] | 2.23
16 | CCCn1nc(Cc2cc(F)c(F)cc2F)c(CN2CCC3(CC2)CN(c2ccc(C(=O)O)cc2)C(=O)O3)c1Cl [Example 1-46, 4-(8-{[5-Chloro-1-propyl-3-(2,4,5-trifluorobenzyl)-1H-pyrazol-4-yl]methyl}-2-oxo-1-oxa-3,8-diazaspiro[4.5]dec-3-yl)benzoic acid, TFA salt] | 40.9
17 | O=C(O)c1ccc(N2CC3(CCN(Cc4cn(CC(F)(F)F)nc4-c4ccc(F)c(F)c4F)CC3)OC2=O)cc1 [Example 1-41, 4-(2-Oxo-8-{[1-(2,2,2-trifluoroethyl)-3-(2,3,4-trifluorophenyl)-1H-pyrazol-4-yl]methyl}-1-oxa-3,8-diazaspiro[4.5]dec-3-yl)benzoic acid, TFA salt] | 10.4
18 | CCCn1cc(CN2CCC3(CC2)CN(c2ccc(C(=O)O)cc2)C(=O)O3)c2ccc(OC)cc21 [Example 6-20, 4-{8-[(6-Methoxy-1-propyl-1H-indol-3-yl)methyl]-2-oxo-1-oxa-3,8-diazaspiro[4.5]dec-3-yl}benzoic acid, TFA salt] | 1.06
19 | O=C(O)c1ccc(N2CC3(CCN(Cc4cn(C5CCCCC5)nc4-c4ccc(C(F)(F)F)cc4)CC3)OC2=O)cc1 [Example 1-24, 4-[8-({1-Cyclohexyl-3-[4-(trifluoromethyl)phenyl]-1H-pyrazol-4-yl}methyl)-2-oxo-1-oxa-3,8-diazaspiro[4.5]dec-3-yl]benzoic acid, TFA salt] | 2.01
20 | CCOc1cc(CN2CCC3(CC2)CN(c2ccc(C4(C(=O)O)CC4)cc2)C(=O)O3)cc(OCC)c1-c1ccc(F)cc1 [Example 3-10, 1-(4-{8-[(2,6-Diethoxy-4′-fluorobiphenyl-4-yl)methyl]-2-oxo-1-oxa-3,8-diazaspiro[4.5]dec-3-yl}phenyl)cyclopropanecarboxylic acid, TFA salt] | 8.41
21 | Cc1cc(CN2CCC3(CC2)CN(c2ccc(C(=O)O)cc2)C(=O)O3)cc2c1OCCC2(C)C [Example 5-13, 4-{2-Oxo-8-[(4,4,8-trimethyl-3,4-dihydro-2H-chromen-6-yl)methyl]-1-oxa-3,8-diazaspiro[4.5]dec-3-yl}benzoic acid, TFA salt] | 0.317
22 | CCCCn1nc(CN2CCC3(CC2)CN(c2ccc(C(=O)O)cc2)C(=O)O3)c2cc(F)ccc21 [Example 6-4, 4-{8-[(1-Butyl-5-fluoro-1H-indazol-3-yl)methyl]-2-oxo-1-oxa-3,8-diazaspiro[4.5]dec-3-yl}benzoic acid, TFA salt] | 98.7
23 | CCOc1cc(CN2CCC3(CC2)CN(c2ccc(C(=O)O)cc2Cl)C(=O)O3)cc(OCC)c1-c1ccc(F)cc1 [Example 3-19, 3-Chloro-4-{8-[(2,6-diethoxy-4′-fluorobiphenyl-4-yl)methyl]-2-oxo-1-oxa-3,8-diazaspiro[4.5]dec-3-yl}benzoic acid, TFA salt] | 0.359
24 | CC1(C)CCc2cc(CN3CCC4(CC3)CN(c3ccc(C(=O)O)cc3)C(=O)O4)ccc2O1 [Example 5-12, 4-{2-Oxo-8-[(2,2-dimethyl-3,4-dihydro-2H-chromen-6-yl)methyl]-1-oxa-3,8-diazaspiro[4.5]dec-3-yl}benzoic acid, TFA salt] | 29.4
25 | COc1cc(CN2CCC3(CC2)CN(c2ccc(C(=O)O)cc2)C(=O)O3)cc2c(OC)cccc12 [Example 5-6, 4-{8-[(4,8-Dimethoxynaphthalen-2-yl)methyl]-2-oxo-1-oxa-3,8-diazaspiro[4.5]dec-3-yl}benzoic acid, TFA salt] | 0.172
26 | CC(C)(C)n1cc(CN2CCCC3(CC2)CN(c2ccc(C(=O)O)cc2)C(=O)O3)c(-c2ccc(F)c(F)c2F)n1 (centres unmarked) [Example 2-11, 4-(8-{[1-tert-Butyl-3-(2,3,4-trifluorophenyl)-1H-pyrazol-4-yl]methyl}-2-oxo-1-oxa-3,8-diazaspiro[4.6]undec-3-yl)benzoic acid, TFA salt] | 207
27 | CCOc1cc(CN2CCC3(CC2)CN(c2ccc(C(=O)O)cc2C)C(=O)O3)cc(OCC)c1-c1ccc(F)cc1 [Example 3-16, 4-{8-[(2,6-Diethoxy-4′-fluorobiphenyl-4-yl)methyl]-2-oxo-1-oxa-3,8-diazaspiro[4.5]dec-3-yl}-3-methylbenzoic acid, TFA salt] | 1.18
28 | O=C(O)c1ccc(N2CC3(CCN(Cc4cn(-c5ccc(F)cc5)nc4-c4ccc(F)cc4)CC3)OC2=O)cc1 [Example 1-20, 4-(8-{[1,3-Bis(4-fluorophenyl)-1H-pyrazol-4-yl]methyl}-2-oxo-1-oxa-3,8-diazaspiro[4.5]dec-3-yl)benzoic acid, TFA salt] | 5.33
29 | CC(C)n1nc(CN2CCC3(CC2)CN(c2ccc(C(=O)O)cc2)C(=O)O3)c2ccc(C(N)=O)cc21 [Example 6-8, 4-(8-{[6-Carbamoyl-1-(propan-2-yl)-1H-indazol-3-yl]methyl}-2-oxo-1-oxa-3,8-diazaspiro[4.5]dec-3-yl)benzoic acid, TFA salt] | 1200
